{"source": "patent US20220017564A1", "about": "“MOGROSIDE COMPOUNDS AND USES THEREOF” (Firmenich SA, priority 2019, published 2022)", "tested_on": "sweet taste", "experiment": "Sensory testing by a group of about 5 panelists (sweetness, licorice taste, lingering aftertaste)", "format": "in vivo", "conditions": "for Lingering: panelists' rating of lingering aftertaste on a scale from 1 to 10; for Licorice / Sweet: panelists' rating on a scale from 1 to 10", "description": "Sensory testing was conducted by a group of about 5 panelists. […] The panelists rated the sweetness, licorice taste, and lingering aftertaste of Isomogroside IVE in comparison to Mogroside V on a scale from 1 to 10.", "data": [{"smiles": "C[C@H](CC[C@@H](O[C@@H]1O[C@H](CO)[C@@H](O)[C@H](O)[C@H]1O[C@@H]1O[C@H](CO)[C@@H](O)[C@H](O)[C@H]1O)C(C)(C)O)[C@H]1CC[C@@]2(C)[C@@H]3CC=C4[C@@H](CC[C@H](O[C@@H]5O[C@H](CO)[C@@H](O[C@@H]6O[C@H](CO)[C@@H](O)[C@H](O)[C@H]6O)[C@H](O)[C@H]5O)C4(C)C)[C@]3(C)[C@H](O)C[C@]12C", "note": "[Isomogroside IVE, (1S,4R,9beta,11alpha,24R)-1-{[4-O-(beta-D-glucopyranosyl)-beta-D-glucopyranosyl]oxy}-11,25-dihydroxy-9,10,14-trimethyl-4,9-cyclo-9,10-secocholest-5-en-24-yl 2-O-beta-D-glucopyranosyl-beta-D-glucopyranoside]", "values": [{"measurement": "licorice taste and lingering aftertaste in comparison to Mogroside V", "setting": "250 ppm, panelists' perception", "result": "no statistically significant difference"}, {"measurement": "sweetness in comparison to Mogroside V", "setting": "250 ppm, panelists' perception", "result": "somewhat sweeter than Mogroside V"}, {"measurement": "Lingering", "setting": "250 ppm", "result": 5.4}, {"measurement": "Licorice", "setting": "250 ppm", "result": 4.5}, {"measurement": "Sweet", "setting": "250 ppm", "result": 7.0}, {"measurement": "times sweeter than sucrose", "setting": "tasted at 250 ppm in a water base", "result": "200-300 times"}]}, {"smiles": "C[C@H](CC[C@@H](O[C@@H]1O[C@H](CO[C@@H]2O[C@H](CO)[C@@H](O)[C@H](O)[C@H]2O)[C@@H](O)[C@H](O)[C@H]1O[C@@H]1O[C@H](CO)[C@@H](O)[C@H](O)[C@H]1O)C(C)(C)O)[C@H]1CC[C@@]2(C)[C@@H]3CC=C4[C@@H](CC[C@H](O[C@@H]5O[C@H](CO[C@@H]6O[C@H](CO)[C@@H](O)[C@H](O)[C@H]6O)[C@@H](O)[C@H](O)[C@H]5O)C4(C)C)[C@]3(C)[C@H](O)C[C@]12C", "note": "[Mogroside V, reference compound]", "values": [{"measurement": "Lingering", "setting": "250 ppm", "result": 4.6}, {"measurement": "Licorice", "setting": "250 ppm", "result": 3.7}, {"measurement": "Sweet", "setting": "250 ppm", "result": 5.1}]}]}
